The target in experiment [1] is T1, human Werner helicase (WRN-BV08, amino acids 517-1235 with L1074F point mutation) (Homo sapiens, UniProt Q14191, L1074F).
T1 construct: [pFastBac1-WRN-(517-1235 L1074F)-TEV-8His]; 8xHis (C, cleaved yes); TEV cleavage site (ENLYFQG) (C); made in house; host or cells: Sf9 insect cells (baculovirus, pFastBac)
Description: ADP-Glo WRN helicase ATPase inhibition assay. It counts as biochemical. As to conditions: 0.15 nM WRN, 5 μM ATP, 0.1 nM DNA duplex; 15 minutes preincubation, 60 minutes at 25° C.; read-out: ADP-Glo_hWRN_IC50. The source says: Bovine skin gelatin (BSG), dimethyl sulfoxide (DMSO), Pluronic F-127 and tris(2-carboxyethyl)phosphine hydrochloride solution (TCEP) were purchased from Sigma-Aldrich (St. Louis, MO) at the highest level of purity possible. Bicine buffer solution was purchased from Alfa Aesar (Tewksbury, MA) and compound NSC-617145 was purchased from Tocris (Minneapolis, MN). DNA duplex was synthesized at BGI (Shenzhen, China) and was composed of strand 1 with the sequence 5′-[…]-3′ (SEQ ID NO.: 1) and strand 2 with the sequence 5′-[…]-3′ (SEQ ID NO.: 2). DNA strands were annealed by heating to 95° C. for 5 minutes followed by slow cooling to room temperature. Compounds in 100% DMSO (0.1 μl) were spotted into a 384-well white polystyrene Optiplate-384 (Perkin Elmer; Waltham, MA) assay plate using a LabCyte Echo 550 (Agilent; Santa Clara, CA). DMSO (0.1 μl) was added to columns 12, rows A-H and column 24, rows I-P for the maximum signal control. Compound NSC-617145 (0.1 μl) was added to columns 12, rows I-P and 24, rows A-H for the minimum signal control (100% inhibition). Compounds/DMSO were preincubated for 15 minutes at 25° C. with 5 μl 2×WRN (BV08), prepared as described below, in assay buffer containing 20 mM Bicine (pH=7.5), 1 mM MgCl2, 10 mM KCl, 0.1% Pluronic F-127, 0.005% BSG, 1 mM TCEP. The reaction was initiated by the addition of 5 μl 2× substrate mixture in assay buffer and incubated for 60 minutes at 25° C. The final concentrations of the assay components were 0.15 nM WRN, 5 μM ATP, and 0.1 nM DNA duplex. The final DMSO concentration was 1% and the reference compound concentration (NSC-617145) used for the minimal signal control was 20 μM. The reaction was stopped by the addition of the ADP-Glo Kit components (Promega; Madison, WI) as directed and the relative luminescence units (RLU) were read on an Envision 2104 (Perkin Elmer; Waltham, MA). % inhibition calculation:
Where RLU=relative luminescence units, sample=signal in sample well, and MIN and MAX are the respective minimum and maximum signal controls.
Four-Parameter IC50 Fit Equation:
Where top and bottom are normally allowed to float but may be fixed at 100 or 0 respectively in a 3-parameter fit. Y is the % inhibition and X is the compound concentration.
Molecular Biology and virus production. The DNA encoding human Werner helicase (Uniprot Q14191, amino acids 517-1235 with L1074F point mutation) was generated with codon-optimization for E. coli expression and subcloned into the pFastBac vector with a TEV cleavable 8×His tag (SEQ ID NO: 5) (WRN-BV08). The baculovirus from the expression plasmid WRN-BV08 was generated from transfection and amplification following the manufacturer's instructions.
Sf9 cells grown in SF900II media were infected with 1:200 WRN-BV08 P2 virus and incubated for protein expression for 72 h at 27° C. The WRN protein was purified using the following protocol. The cell pellets were thawed and resuspended in buffer A (50 mM Tris, pH 7.5, 500 mM NaCl, 1 mM TCEP, 10% Glycerol) supplemented with 0.5% CHAPS, 1 mM PMSF, […] Leupeptin, 1 μg/ml Pepstatin, and the Pierce Universal Nuclease and cocktail tablet. Cleared lysates were loaded onto a Ni Sepharose™ excel column and washed with buffer A and bound protein was eluted with buffer A supplemented with 300 mM imidazole. The eluted protein was dialyzed against buffer A and digested by His-tagged TEV (1:5 ratio) overnight at 4° C. ZnCl2 was added into the sample at final 15 μM before loading onto a second Ni Sepharose™ excel column. Untagged WRN protein was eluted from the column with buffer A supplemented with 20 mM imidazole, dialyzed overnight into buffer B (50 mM Tris, pH 7.5, 1 mM TCEP, 10% Glycerol) supplemented with 150 mM NaCl and loaded onto a Heparin column. Proteins were eluted with a step gradient of buffer B supplemented with 150 mM, 200 mM, 300 mM and 500 mM NaCl. […]

The subject of experiment [2] is p21 induction in HCT 116 cells. Description: p21 induction in cells (in-cell western, p21/GAPDH ratio). It counts as cell-based. As to conditions: Homo sapiens; HCT 116 colon carcinoma cell line, 24 h compound incubation; percent activation vs internal reference WRN inhibitor; read-out: P21_EC50. How it is done: The colon carcinoma cell line HCT 116 was obtained from ATCC and cultured in growth medium consisting of Mccoy's 5A Medium (Gibco 16600108) supplemented with […] (Transgene FS201-02) and 100 units/mL penicillin-streptomycin (Gibco 15140122) and maintained at 37° C. under […]. On the day of seeding, 2,000 cells in 30 μL of culture media were plated per well to Poly-D-Lysine 384 Well Black Clear Plates (Biocoat 356663) and incubated overnight at 37° C. under 5% CO2. The following day, compounds were serially diluted in DMSO for a total of 11 test concentrations. The typical starting concentration of cpds was 10 μM with 2-fold dilutions. Next, 150 nL of diluted compound was added in duplicate to the assay plate, using an Echo 655 (Labcyte). The plate was centrifuged at 500 RPM for 1 min and then incubated at 37° C. under 5% CO2 for 24 h. After 24 h, medium was removed, and cells were fixed by adding 40 µL of 4% paraformaldehyde solution to each well and incubated for 20 min at room temperature. The plate was then washed 4 times with 100 μL per well of wash buffer (PBS with 0.1% Tween-20) using a microplate washer. Next, 30 μL of ice-cold methanol was added to each well and the plate was incubated at −20° C. for 10 min. The plate was washed 4 times with 100 μL per well of wash buffer by a microplate washer, then 30 μL per well of blocking buffer (Intercept PBS blocking buffer (LI-COR 927-70001) with 0.05% Tween-20) was added and the plate was incubated at room temperature with shaking for 2 h. Next, to each test well, 20 μL of primary antibody solution (p21 Waf1/CIP (12D1) Rabbit mAb (Cell Signaling Technologies 2947) diluted 1:1000 and GAPDH (D4C6R) Mouse mAb (Cell Signaling Technologies 97166) diluted 1:2000 in blocking buffer) was added and the plate was placed at 4° C., overnight. The following day, the plate was washed 5 times with 100 μL per well of wash buffer using a microplate washer for 5 min. 20 μL per well of secondary antibody (IRDye 680CW Goat anti-Mouse IgG (H+L) (LI-COR 926-68070) diluted 1: 2000 in Blocking Buffer and IRDye 800CW Goat anti-Rabbit IgG (H+L) (LI-COR 926-32211) diluted 1: 2000 in Blocking Buffer) was then added and the plate was stored for 2 h in the dark at room temperature with shaking. The plate was then washed 4 times with 100 μL per well of wash buffer again using a microplate washer. Finally, the p21 signal and the GAPDH signal were quantified using a LI-COR Odyssey CLx Imager machine reading at 800 nm and 700 nm, respectively. Each plate contained DMSO control (low control) and an internal reference WRN inhibitor (high control) respectively. For quantitation, the 800 nm/700 nm ratio was calculated for each well to give fold p21 induction and then percent activation for each compound well was calculated as follows (100×(ratio cpd well-ratio low control)/(ratio high control−ratio low control)). EC50 values for each compound were generated after non-linear regression curve fitting using commercially available software.

The structures appear in SMILES notation. A value given as a limit tells only on which side of the number the result lay.

The text below walks through data of US20250368646A1, “TRICYCLIC FUSED WRN INHIBITORS” (Nimbus Wadjet, Inc., priority 2024, published 2025).

T1 sequence (Q14191 with tags, fused parts or gaps L1074F): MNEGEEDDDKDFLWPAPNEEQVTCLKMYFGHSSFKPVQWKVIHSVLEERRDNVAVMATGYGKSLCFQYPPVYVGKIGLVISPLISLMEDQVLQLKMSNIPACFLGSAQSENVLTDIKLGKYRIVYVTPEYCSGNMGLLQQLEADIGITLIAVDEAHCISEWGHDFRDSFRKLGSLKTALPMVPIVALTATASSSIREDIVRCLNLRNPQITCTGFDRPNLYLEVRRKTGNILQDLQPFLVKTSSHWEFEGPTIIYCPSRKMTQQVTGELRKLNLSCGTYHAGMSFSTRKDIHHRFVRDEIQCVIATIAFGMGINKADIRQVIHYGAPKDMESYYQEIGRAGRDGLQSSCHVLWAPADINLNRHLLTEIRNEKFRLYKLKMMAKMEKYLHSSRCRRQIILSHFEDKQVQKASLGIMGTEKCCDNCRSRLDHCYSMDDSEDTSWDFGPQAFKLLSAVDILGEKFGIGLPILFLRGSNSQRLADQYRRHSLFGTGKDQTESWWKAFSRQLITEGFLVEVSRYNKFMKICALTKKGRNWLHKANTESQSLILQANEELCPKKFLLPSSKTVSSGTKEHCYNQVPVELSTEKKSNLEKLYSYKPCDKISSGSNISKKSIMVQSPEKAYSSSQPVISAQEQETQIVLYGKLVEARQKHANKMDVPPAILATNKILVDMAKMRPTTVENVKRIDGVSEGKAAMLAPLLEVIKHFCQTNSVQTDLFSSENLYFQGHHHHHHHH

For `Cc1ncnc(C(=O)N2CCN(c3c4n(c5nn(C6CC6)nc5c3=O)[C@H](C(=O)Nc3ccc(C(F)(F)F)cc3Cl)C[C@H]4C)[C@H]3CC[C@@H]32)c1O` (relative stereo) [Compound I-27, (6R*,8R**)-N-[2-chloro-4-(trifluoromethyl)phenyl]-2-cyclopropyl-5-[(1S,6S)-5-(5-hydroxy-6-methylpyrimidine-4-carbonyl)-2,5-diazabicyclo[4.2.0]octan-2-yl]-6-methyl-4-oxo-2H,4H,6H,7H,8H-[1,2,3]triazolo[4,5-e]indolizine-8-carboxamide], the IC50 in experiment [1] is at most 5 nM. In addition, the EC50 in experiment [2] is at most 500 nM.
Regarding `Cc1nc2c(=O)c(N3CCN(C(=O)c4ncnc(C)c4O)[C@H]4CC[C@@H]43)c3n(c2nc1C)[C@H](C(=O)Nc1ccc(C(F)(F)F)cc1Cl)C[C@H]3C` (single isomer, unassigned) [Compound I-20], in experiment [1], the IC50 is over 500 nM. Besides, the EC50 in experiment [2] is over 5000 nM.
`COc1cc(-n2nc3c(=O)c(N4CCN(C(=O)c5ncnc(C)c5O)[C@H]5CC[C@@H]54)c4n(c3n2)[C@H](C(=O)NC23CC(C5CC5)(C2)C3)C[C@@H]4C)ccn1` (single isomer, unassigned) [Compound I-4]: in experiment [1], the IC50 was 100 to 500 nM. Moreover, the EC50 in experiment [2] is over 5000 nM.
Consider `Cc1nc2c(=O)c(N3CCN(C(=O)c4ncnc(C)c4O)[C@H]4CC[C@@H]43)c3n(c2nc1C)[C@@H](C(=O)Nc1ccc(C(F)(F)F)cc1Cl)C[C@H]3C` (single isomer, unassigned) [Compound I-19], for which the IC50 in experiment [1] is 50 to 100 nM. In addition, the EC50 in experiment [2] lay within 500 to 2000 nM.
With `COc1cc(-n2nc3c(=O)c(N4CCN(C(=O)c5ncnc(C)c5O)[C@H]5CC[C@@H]54)c4n(c3n2)[C@@H](C(=O)NC23CC(C5CC5)(C2)C3)C[C@H]4C)ccn1` (single isomer, unassigned) [Compound I-2], in experiment [1], the IC50 lay in the range of 5 to 50 nM. Moreover, the EC50 in experiment [2] is at most 500 nM.
As to `COc1cc(-n2nc3c(=O)c(N4CCN(C(=O)c5ncnc(C)c5O)[C@H]5CC[C@@H]54)c4n(c3n2)[C@@H](C(=O)Nc2ccc(C(F)(F)F)cc2Cl)C[C@H]4C)ccn1` (single isomer, unassigned) [Compound I-5], in experiment [1], the IC50 was at most 5 nM. Besides, the EC50 in experiment [2] is at most 500 nM.
Consider `COc1cc(-n2nc3c(=O)c(N4CCN(C(=O)c5ncnc(C)c5O)[C@H]5CC[C@@H]54)c4n(c3n2)[C@H](C(=O)Nc2ccc(C(F)(F)F)cc2Cl)C[C@@H]4C)ccn1` (single isomer, unassigned) [Compound I-9], for which the IC50 in experiment [1] is 100 to 500 nM. Moreover, the EC50 in experiment [2] is 500 to 2000 nM.
Turning to `Cc1ncnc(C(=O)N2CCN(c3c4n(c5nn(C6=CCOCC6)nc5c3=O)[C@H](C(=O)Nc3ccc(C(F)(F)F)cc3Cl)C[C@H]4C)[C@H]3CC[C@@H]32)c1O` (single isomer, unassigned) [Compound I-25], the IC50 in experiment [1] was over 500 nM. For the same compound, the EC50 in experiment [2] was over 5000 nM.
Turning to `COc1cc(-n2nc3c(=O)c(N4CCN(C(=O)c5ncnc(C)c5O)[C@H]5CC[C@@H]54)c4n(c3n2)[C@@H](C(=O)NC23CC(C5CC5)(C2)C3)C[C@@H]4C)ccn1` (single isomer, unassigned) [Compound I-1], in experiment [1], the IC50 lay within 5 to 50 nM. In addition, in experiment [2], the EC50 was at most 500 nM.
With `Cc1ncnc(C(=O)N2CCN(c3c4n(c5nn(C6CC6)nc5c3=O)[C@@H](C(=O)Nc3ccc(C(F)(F)F)cc3Cl)C[C@H]4C)[C@H]3CC[C@@H]32)c1O` (single isomer, unassigned) [Compound I-21], the IC50 in experiment [1] is at most 5 nM. Further, in experiment [2], the EC50 is at most 500 nM.
`Cc1nc2c(=O)c(N3CCN(C(=O)c4ncnc(C)c4O)[C@H]4CC[C@@H]43)c3n(c2nc1C)[C@@H](C(=O)Nc1ccc(C(F)(F)F)cc1Cl)C[C@@H]3C` (single isomer, unassigned) [Compound I-17]: the IC50 in experiment [1] is at most 5 nM. Also, in experiment [2], the EC50 is at most 500 nM.
As to `COc1cc(-n2nc3c(=O)c(N4CCN(C(=O)c5ncnc(C)c5O)[C@H]5CC[C@@H]54)c4n(c3n2)[C@@H](C(=O)Nc2ccc(C(F)(F)F)cc2F)C[C@@H]4C)ccn1` (single isomer, unassigned) [Compound I-15], the IC50 in experiment [1] was at most 5 nM. Besides, in experiment [2], the EC50 is at most 500 nM.
As for `Cc1nc2c(=O)c(N3CCN(C(=O)c4ncnc(C)c4O)[C@H]4CC[C@@H]43)c3n(c2nc1C)[C@H](C(=O)Nc1ccc(C(F)(F)F)cc1Cl)C[C@@H]3C` (single isomer, unassigned) [Compound I-18], the IC50 in experiment [1] was at most 5 nM. Also, in experiment [2], the EC50 was at most 500 nM.
For the compound `Cc1ncnc(C(=O)N2CCN(c3c4n(c5nn(C6=CCOCC6)nc5c3=O)[C@H](C(=O)Nc3ccc(C(F)(F)F)cc3Cl)C[C@@H]4C)[C@H]3CC[C@@H]32)c1O` (single isomer, unassigned) [Compound I-24], the IC50 in experiment [1] was over 500 nM. Also, the EC50 in experiment [2] was over 5000 nM.
